Columns and labels:
[1] = Stability studies on free base Compound 1 and amorphous diHCl salt; type: physicochemical; conditions: 40° C.
Experimental: Stability studies were performed on the free base Compound 1 and an amorphous diHCl salt of Compound 1. This salt was formed by dissolving the compound in aqueous solution, adjusting the pH of the solution to approximately 4.2, followed by lyophilization. The free base degraded in less than one month at 40° C., and approximately three months at 4° C. In contrast, the diHCl salt of Compound 1 was stable for 6 months at 40° C., and for two years at room temperature (25° C.).

[2] = Relative stabilities of the polymorphic forms (maturation / slurry, XRPD); type: physicochemical
Experimental: The relative stabilities of the polymorphic forms of Compound 1 were analyzed. For example, form 1 tosylate salt was subjected to a maturation experiment for 24 hours in either IPA or methyl pentanone, seeded with either form 2 or form 3 tosylate salt. […] A slurry of a 50:50 mixture of form 1 and form 3 were analyzed in IPA for 18 hours at 0° C., 25° C., 40° C., and 60° C., as shown in FIG. 7.

Row | SMILES | time for which the substance was stable [1] [months] | change of polymorphic form in slurry ([2]; 50:50 mixture of form 1 and form 3 in IPA, 18 hours at 0° C., 25° C., 40° C., 60° C.) | change of polymorphic form on maturation ([2]; 24 hours in IPA or methyl pentanone, seeded with form 2 or form 3 tosylate salt)
1 | CN(C)c1cc(CNCC(C)(C)C)c(O)c2c1CC1CC3C(N(C)C)C(O)=C(C(N)=O)C(=O)C3(O)C(O)=C1C2=O.Cl.Cl (stereo not drawn) [diHCl salt of Compound 1] | 6 | – | –
2 | CN(C)c1cc(CNCC(C)(C)C)c(O)c2c1CC1CC3C(N(C)C)C(O)=C(C(N)=O)C(=O)C3(O)C(O)=C1C2=O.Cc1ccc(S(=O)(=O)O)cc1 (stereo not drawn) [form 1 tosylate salt] | – | no change of form 1 into form 3 | no change of form 1 into form 2 or 3
